Data published in ChEMBL document CHEMBL3507680, “University of Dundee, Gates Library screen for HepG2 cell viability”.

Assay: Human HepG2 cell viability assay in 384 well format
Format: toxicity, cell-based
Parameters: dose 125 nL, time 70.5 hour; concentration not given beside the values
Conditions: HepG2 cells, read-out: Inhibition

| SMILES | cytotoxicity at 70.5 h [%] |
| --- | --- |
| CN(Cc1noc(C2CC2)n1)C1CCN(Cc2nc(C3CC3)no2)C1 (stereo unspecified) | 0.524 |
| Cc1ccc(NC(=O)NC(C)C(=O)N2CCS(=O)(=O)CC2)cc1 (stereo unspecified) | -7.48 |
| CCCC(C)(O)c1cc(C(N)=O)no1 (stereo unspecified) | -9.46 |
| CCOc1ncccc1NC(=O)N1CCCCCC1 | -13.8 |
| O=c1[nH]c2ncccc2n1C1CCNCC1 | -11 |
| Cc1nc2ccccc2nc1CN(C)CC1CCCN1c1cccnn1 (stereo unspecified) | 3.52 |
| CS(=O)(=O)Nc1nn(Cc2ccc(F)cc2)cc1Br | -3.65 |
| CNc1ncc(CN(C)Cc2cc3n(n2)CCNC3)cn1 | -9 |
| Cc1cc(C(=O)NCc2cccs2)nc(N2CCCC2)n1 | -6.4 |
| CCn1nc(CNC(=O)C2CC(=O)N(C3CCCC3)C2)c2ccccc21 (stereo unspecified) | 13.8 |
| CN(C)C(=O)CN1C[C@@H]2CC[C@H](C1)N(Cc1cc(F)ccc1F)C2 | 7.45 |
| O=C1CC2(CCN(CCCO)CC2)CN1Cc1ccc(F)c(F)c1 | -5 |
| Cc1cc(CN(CCO)c2ccc(Br)cc2)on1 | -0.419 |
| COc1ccc(COCC(O)CNC(=O)c2ccncc2)cc1 (stereo unspecified) | -1.56 |
| CCc1noc(C(C)N2CCN(Cc3ncc(C(C)(C)C)o3)CC2)n1 (stereo unspecified) | 11.8 |
| COc1cccc(N2CCN(Cc3ccc4ccn(C)c4c3)CC2=O)c1 | -5.61 |
| Fc1cccc(CNCC2Cn3nncc3CO2)c1 (stereo unspecified) | -7.02 |
| CNC(=O)C1CCCN1C(=O)NCCCc1cccc(F)c1 (stereo unspecified) | 1.01 |
| COc1ncccc1CN1CCC2(CC1)COCCN2C | -8.7 |

| SMILES | cytotoxicity at 70.5 h [%] |
| --- | --- |
| CC(C)=CCN1CCN(C(=O)c2cc(C(C)C)no2)[C@H]2CS(=O)(=O)C[C@H]21 | -8.12 |
| Cc1ccc(N2CC[C@H]3C[C@H](C(=O)NCc4ccco4)O[C@H]3C2)nn1 | -11.1 |
| COc1cc2c(c(OC)c1OC)CCN(CCN1CCCCC1)CC2 | -10.5 |
| Cc1cc(CNC(C)Cn2cncn2)ccc1Br (stereo unspecified) | -87.4 |
| CC(=O)NC[C@H]1COCc2nc3cc(S(C)(=O)=O)ccc3n21 | -0.348 |
| CCCOCC(=O)N1CCC2(CC1)c1nc[nH]c1CCN2S(C)(=O)=O | -5.48 |
| O=C(NCCS(=O)(=O)N1CCN(c2ncccn2)CC1)C1CC1 | 16.5 |
| COC(=O)c1cccc2nc([C@H]3CCN(Cc4ccccc4F)C3)oc12 | -6.68 |
| COCCOc1ccc(NCc2cccc3cn[nH]c23)cn1 | -7.69 |
| Cn1c2c(ccc1=O)CC(NC(=O)Cc1ccsc1)CC2 (stereo unspecified) | -2.49 |
| CCC(C)N1CCc2nc(N3CCCC3)nc(NC(C)C)c2C1 (stereo unspecified) | -7.15 |
| Cc1nc(C)c(C(=O)N2CCc3cc(F)ccc3C2C)o1 (stereo unspecified) | -4.82 |
| CO[C@@H]1CC[C@H]2[C@H]1OCCN2C(=O)COc1ccc(F)cc1 | -16.9 |
| O=C(O)[C@]12CCCN(Cc3ccccc3)C[C@H]1CN(c1ncccn1)C2 | -5.39 |
| Cc1cccc(-c2nnn3c2COC(CNS(=O)(=O)C2CC2)C3)c1 (stereo unspecified) | -9.41 |
| COC(=O)CC1CN(Cc2ccn(-c3ccc(F)cc3)n2)CCO1 (stereo unspecified) | -8.65 |
| CCn1nc(NC(=O)Cn2ccc(C(C)=O)n2)c2ccccc21 | 26.9 |
| Cc1cc(F)ccc1OC1(C(=O)O)CCN(Cc2c[nH]cn2)CC1 | -4.85 |
| CS(=O)(=O)N1CC[C@@H]2[C@@H](CCC(=O)N2CCC2=CCCCC2)C1 | 16.1 |

| SMILES | cytotoxicity at 70.5 h [%] |
| --- | --- |
| CC(C)c1sc(Cl)nc1C(=O)N1CCN(c2ccccc2)CC1 | 28.2 |
| CCOc1ncccc1NC(=O)Nc1c(C)nn(C(C)C)c1C | -4.11 |
| CC(C)Cn1c(=O)n(CCn2cc(Cl)cn2)c2cc(C(=O)O)cnc21 | -7.3 |
| CCNc1cc2c(nn1)CCN(C(=O)CCc1c(C)noc1Cl)C2 | -4.23 |
| COc1cc(C)nc(N2CCN(C(=O)c3cc(C)no3)CC2)n1 | 26.3 |
| CC1CCN(Cc2cc(=O)[nH]c(=O)[nH]2)CC1 | 8.26 |
| CCN(CC(C)C#N)C(=O)CNc1ccc(F)c(C)c1 (stereo unspecified) | 0.826 |
| O=S(=O)(C1CC1)N1Cc2[nH]nc(COCC3CC3)c2C1 | -6.81 |
| Cc1csc(C2(NCc3ccc(OCC(F)F)cc3)CCCC2)n1 | -5.7 |
| CC(C)NC(=O)C[C@@H]1CCNC[C@@H]1Cc1cc(-c2ccccn2)on1 | -16.5 |
| O=C1CC(NS(=O)(=O)c2cccc(F)c2)CN1 (stereo unspecified) | 5.76 |
| CC(C)CCn1[nH]c(CNc2ccc(Cl)cc2)nc1=O | 0.442 |
| O=S1(=O)CCC(N(CCc2ccc3c(c2)CCO3)C2CC2)C1 (stereo unspecified) | -1.96 |
| Fc1ccc(-c2noc3c2CN(CC2CC2)CC3)cc1F | -29.6 |
| O=C(c1ccnnc1)N1CCc2onc(CN3CCCC3)c2C1 | -3.95 |
| CCN1C[C@H]2C3(CCN(S(=O)(=O)CC)CC3)CC[C@@]2(C(=O)N(C)C)C1 | -4.85 |
| CN(CC(=O)N1CCN(c2cnccn2)CC1)c1ccc(Cl)cn1 | -13.1 |
| CN1CCOC(CN(C(=O)COc2ccccc2)c2nccs2)C1 (stereo unspecified) | -4 |
